The text below walks through data of US12552769B2, “Pyrimidine derivative” (ASKA PHARMACEUTICAL CO., LTD., priority 2021, dated 2026).

Data set [1] has as its system UGT. The experiment in a line: Metabolic stability test (UGT), rat microsomes. The format is in vitro ADME. The note with it: Rat liver or small intestine microsomes 0.5 mg protein/mL, compound 1 μM, UDPGA 2 mM, 5 minutes at 37° C. On the procedure:
(§1) DMSO was added to the compound of Example 1 to dissolve the compound, and then acetonitrile and water were added to prepare a test compound solution (10 μM). The test compound solution (final concentration 1 μM), a potassium phosphate buffer (pH 7.4) containing MgCl2 (9 mM) and alamethicin (25 μg/mL), and a rat or guinea pig liver or small intestine microsomal suspension were mixed (final concentration 0.5 mg protein/mL) under ice cooling. After 5 minutes of pre-incubation at 37° C. with stirring, a UDPGA solution (final concentration 2 mM) was added to initiate the reaction. After 5 minutes of incubation at 37° C. with stirring, 3-fold volume of acetonitrile was added, and the resulting mixture was stirred to terminate the enzymatic reaction. The reaction mixture was centrifuged (1500×g, 10 minutes, 4° C.), and the supernatant was mixed with an internal standard solution to prepare a measurement sample. The concentration of the compound in the sample was determined by LC-MS/MS. A sample in which the enzymatic reaction was not allowed was separately prepared, and the concentration measured for this sample was used as the initial value. For comparison, the compound of International Publication WO2017/73709, Example 182 was tested in the same manner.

Another data set in a line: Solubility test. Conditions: aqueous buffer, kinetic from dmso stock; JP2 solution (pH 6.8), 10 mM DMSO solution diluted 50-fold, incubation 16 to 24 hours. It counts as physicochemical. On the procedure: A 10 mM solution of the compound of Example 1 in DMSO was prepared, and diluted 50-fold with JP2 solution (pH 6.8). After incubation for 16 to 24 hours, the test solution was filtered, and the concentration of the compound in the filtrate was determined by HPLC-UV or with a plate reader. For comparison, the compound of International Patent Publication WO2017/73709, Example 182 was tested in the same manner.

The target in a further data set is T1, human mPGES-1 (Homo sapiens, UniProt O14684).
T1 construct: expressed in transfected cells; host or cells: COS-1 cells (microsomal fraction)
T1 sequence (O14684 1-152): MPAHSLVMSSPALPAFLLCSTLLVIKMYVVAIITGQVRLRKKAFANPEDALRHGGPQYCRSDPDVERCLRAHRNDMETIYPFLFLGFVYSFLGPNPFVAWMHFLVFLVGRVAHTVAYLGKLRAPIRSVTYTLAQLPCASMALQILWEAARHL
Kind of data set: Test for mPGES-1 inhibitory activity. The format is biochemical. The note with it: microsomes of COS-1 cells expressing human mPGES-1; PGH2 1 μM; 4° C.; PGE2 by EIA; read-out: IC50 value (mPGES-1 inhibition). The protocol:
Microsomes were prepared from COS-1 cells transiently transfected with a plasmid containing human mPGES-1 cDNA, and used as mPGES-1 enzyme. The mPGES-1 enzyme was diluted with a sodium phosphate buffer (pH 7.2) containing reduced glutathione (2.5 mM) and EDTA (1 mM), DMSO or a DMSO solution of a test compound (final concentration of DMSO was 1%) was added to the enzyme, and the mixture was preincubated at 4° C. for 15 minutes. Then, PGH2 as the substrate was added at a final concentration of 1 μM to start the enzymatic reaction, and after incubation at 4° C. for 4 minutes, a solution of ferric chloride (25 mM) and citric acid (50 mM) was added to terminate the enzymatic reaction. Generated PGE2 was measured by using Prostaglandin E2 Express EIA Kit (Cayman Chemical). IC50 values were determined by using a standard method.

A short description of data set [2]: Blood concentration (plasma pharmacokinetics after oral administration). The format is in vivo. Conditions: female, guinea pig, guinea pigs, oral 10 mg/kg, mean (n = 2). On the procedure: The compound of Example 1 and the compound disclosed in International Patent Publication WO2017/73709, Example 182 were weighed in an amount of 10 mg each for a dose of 10 mg/kg, and each compound was finely ground in an agate mortar for about 30 seconds. 0.5% Methyl cellulose 400 solution (Fujifilm Wako Pure Chemicals Co., Ltd.) was added small portionwise to each compound to form a suspension, finally the mortar was washed with a small volume of 0.5% MC400 solution, which was combined with the suspension, and the total volume of the suspension was made to be 10 mL with 0.5% MC400 solution. The suspension was sonicated for approximately 1 minute to prepare a 1 mg/mL solution for administration. The solution was administered to two female guinea pigs at a dose of 10 mL/kg using a flexible oral catheter (RZ-1, Nippon Clea), and blood was collected 0.5, 1, 2, 4, 6, 10, and 24 hours after the oral administration, and centrifuged to obtain plasma. Plasma concentrations of the compounds were measured by the LC-MS/MS (liquid chromatography-tandem mass spectrometry) method.

The subject of data set [3] is UGT. Kind of data set: Metabolic stability test (UGT), guinea pig microsomes. Conditions: Guinea pig liver or small intestine microsomes 0.5 mg protein/mL, compound 1 μM, UDPGA 2 mM, 5 minutes at 37° C. The format is in vitro ADME. The protocol:
as §1

The molecule `CC(C)(F)C(=O)NCc1ccc(C(F)(F)F)c(-c2nc(-c3ccc(C(F)(F)F)cn3)cc(=O)[nH]2)c1F` [Example 1, 2-Fluoro-N-(2-fluoro-3-{6-oxo-4-[5-(trifluoromethyl)pyridin-2-yl]-1,6-dihydropyrimidin-2-yl}-4-(trifluoromethyl)benzyl)-2-methylpropanamide] had a UGT metabolic stability with UGT [1] of 124 μL/min/mg protein. In “Solubility test”, this molecule came in with a solubility greater than 110 µg/mL. Besides, the IC50 at human mPGES-1 came out at 1.8 nM. Further, in data set [2], the total exposure AUC(0-inf) was found to be 62.1 µM·h, the AUC(0-t) was determined as 42.4 µM·h, the concentration peaked (Cmax) at 5.63 µM and the time to peak (Tmax) worked out at 1.5 h. This molecule gave a half-life in data set [2] of 13.3 h. The MRT inf in data set [2] (read-out: MRT0-∞) was determined as 18.3 h. In addition, in the data set with UGT [3], the UGT metabolic stability is given as 130 μL/min/mg protein.
